Assay results reported in US8435939B2, “Polypeptide anti-HIV agent containing the same” (priority 2000, dated 2013).
Where a SMILES comes first, the peptide text is derived from it. Bridges are numbered along the chain shown (N, C = ends). [ ]: non-standard residue; d: D form. 2Nal = N[C@@H](Cc1ccc2ccccc2c1)C(=O)O; Cit = NC(=O)NCCC[C@H](N)C(=O)O

Legend:
Assay type in all cases: cell-based
HIV-1 (IIIB) strain = experiment: Anti-HIV activity: inhibition of MT-4 cell death by HIV infection (MTT method); settings: MT-4 CD4+ T cells infected by HIV-1 (IIIB), 37° C., 5 days, MTT; average of at least three measurements; read-out: EC50 (concentration where MT-4 cell death by HIV infection is inhibited by 50%)
Description: (§1) HIV-1 (IIIB) strain obtained from MOLT/HIV-1 (IIIB) cell previously infected by HIV-1 was used. The polypeptide of the present invention was added to MT-4 CD4^+ T cells infected by HIV in various kinds of concentrations, and a number of living cells after culturing at 37° C. for 5 days was determined by using a 3′-(4,5-dimethylthiazol-2-yl)-2,5-diphenyltetrazolinium bromide (MTT) method. Anti-HIV activity is shown by a concentration (EC50 value), where MT-4 cell death by HIV infection is inhibited by 50%. Cytotoxicity of the peptide according to the present invention was shown by a 50% survival concentration (Test I: CC50 value) by culturing virus-uninfected MT-4 cells with the polypeptide according to the present invention in various concentrations, and determining a number of living cells by the MTT method. Moreover, a number of living cells of human peripheral blood mononuclear cells (monocyte) (PBMC) was determined by trypan blue dyeing method, and shown by a 50% survival concentration (Test II: CC50 value). Respective ratios of the CC50 value and the EC50 value were shown as a selective index (SI). Obtained values were summarized in Table 3 using the conventionally known polypeptides T134 and T140, and an anti-HIV compound: 3′-azido-2′,3′-dideoxythymidine (AZT) used as a medicine as a control anti-HIV agent.

[1] = Cytotoxicity Test I: virus-uninfected MT-4 cells, MTT method; settings: human, MT-4 cells (virus-uninfected); virus-uninfected MT-4 cells, MTT method; read-out: CC50 (Test I), 50% survival concentration
Description: as §1

[2] = tested on: virus-uninfected MT-4 cells; experiment: as above; settings: selective index, MT-4 CC50 over anti-HIV EC50
Description: as §1

Compound	EC50 (HIV-1 (IIIB) strain) [nM]	CC50 [1] [nM]	SI: CC50 (Test I)/EC50 [2]
N=C(N)NCCC[C@H](NC(=O)[C@@H]1CSSC[C@H](NC(=O)[C@H](Cc2c[nH]c3ccccc23)NC(=O)[C@H](CCCNC(=N)N)NC(=O)[C@@H](N)CCCNC(=N)N)C(=O)N[C@@H](Cc2ccc(O)cc2)C(=O)N[C@@H](CCCNC(=N)N)C(=O)N[C@@H](CCCCN)C(=O)N[C@H](CCCCN)C(=O)N2CCC[C@H]2C(=O)N[C@@H](Cc2ccc(O)cc2)C(=O)N[C@@H](CCCNC(=N)N)C(=O)N[C@@H](CCCNC(N)=O)C(=O)N1)C(=O)O [Compound T134, H-Arg-Arg-Trp-Cys-Tyr-Arg-Lys-DLys-Pro-Tyr-Arg-Cit-Cys-Arg-OH, reference compound] (H-RRWCYRK[dK]PYR[Cit]CR-OH; disulfide 4-13)	8.3		
N=C(N)NCCC[C@H](NC(=O)[C@@H]1CSSC[C@H](NC(=O)[C@H](Cc2ccc3ccccc3c2)NC(=O)[C@H](CCCNC(=N)N)NC(=O)[C@@H](N)CCCNC(=N)N)C(=O)N[C@@H](Cc2ccc(O)cc2)C(=O)N[C@@H](CCCNC(=N)N)C(=O)N[C@@H](CCCCN)C(=O)N[C@H](CCCCN)C(=O)N2CCC[C@H]2C(=O)N[C@@H](Cc2ccc(O)cc2)C(=O)N[C@@H](CCCNC(=N)N)C(=O)N[C@@H](CCCNC(N)=O)C(=O)N1)C(=O)O [Compound T140, H-Arg-Arg-Nal-Cys-Tyr-Arg-Lys-DLys-Pro-Tyr-Arg-Cit-Cys-Arg-OH, reference compound] (H-RR[2Nal]CYRK[dK]PYR[Cit]CR-OH; disulfide 4-13)	3.3		
C[C@@H]1NC(=O)[C@H](Cc2ccc(O)cc2)NC(=O)[C@@H](NC(=O)[C@H](Cc2ccc3ccccc3c2)NC(=O)[C@H](CCCNC(=N)N)NC(=O)[C@@H](N)CCCNC(=N)N)CSSC[C@@H](C(=O)N[C@@H](CCCNC(=N)N)C(=O)O)NC(=O)[C@H](CCCNC(N)=O)NC(=O)[C@H](CCCNC(=N)N)NC(=O)[C@H](Cc2ccc(O)cc2)NC(=O)[C@@H]2CCCN2C(=O)[C@@H](CCCCN)NC(=O)[C@H](CCCCN)NC1=O [TA14005, H-Arg-Arg-Nal-Cys-Tyr-Ala-Lys-DLys-Pro-Tyr-Arg-Cit-Cys-Arg-OH] (H-RR[2Nal]CYAK[dK]PYR[Cit]CR-OH; disulfide 4-13)	9.3		
C[C@@H]1NC(=O)[C@H](Cc2ccc(O)cc2)NC(=O)[C@@H](NC(=O)[C@H](Cc2ccc3ccccc3c2)NC(=O)[C@H](CCCN=C(N)N)NC(=O)[C@@H](N)CCCN=C(N)N)CSSC[C@@H](C(=O)N[C@@H](CCCN=C(N)N)C(=O)O)NC(=O)[C@H](CCCNC(N)=O)NC(=O)[C@H](CCCN=C(N)N)NC(=O)[C@H](Cc2ccc(O)cc2)NC(=O)[C@@H]2CCCN2C(=O)[C@@H](CCCCN)NC(=O)[C@H](CCCCN)NC1=O [TA14005, H-Arg-Arg-Nal-Cys-Tyr-Ala-Lys-DLys-Pro-Tyr-Arg-Cit-Cys-Arg-OH] (H-RR[2Nal]CYAK[dK]PYR[Cit]CR-OH; disulfide 4-13)		> 40000	>4500
C[C@@H]1NC(=O)[C@H](CCCNC(=N)N)NC(=O)[C@H](Cc2ccc(O)cc2)NC(=O)[C@@H](NC(=O)[C@H](Cc2ccc3ccccc3c2)NC(=O)[C@H](CCCNC(=N)N)NC(=O)[C@@H](N)CCCNC(=N)N)CSSC[C@@H](C(=O)N[C@@H](CCCNC(=N)N)C(=O)O)NC(=O)[C@H](CCCNC(N)=O)NC(=O)[C@H](CCCNC(=N)N)NC(=O)[C@H](Cc2ccc(O)cc2)NC(=O)[C@@H]2CCCN2C(=O)[C@@H](CCCCN)NC1=O [TA14006, H-Arg-Arg-Nal-Cys-Tyr-Arg-Ala-DLys-Pro-Tyr-Arg-Cit-Cys-Arg-OH] (H-RR[2Nal]CYRA[dK]PYR[Cit]CR-OH; disulfide 4-13)	47		
C[C@@H]1NC(=O)[C@H](CCCN=C(N)N)NC(=O)[C@H](Cc2ccc(O)cc2)NC(=O)[C@@H](NC(=O)[C@H](Cc2ccc3ccccc3c2)NC(=O)[C@H](CCCN=C(N)N)NC(=O)[C@@H](N)CCCN=C(N)N)CSSC[C@@H](C(=O)N[C@@H](CCCN=C(N)N)C(=O)O)NC(=O)[C@H](CCCNC(N)=O)NC(=O)[C@H](CCCN=C(N)N)NC(=O)[C@H](Cc2ccc(O)cc2)NC(=O)[C@@H]2CCCN2C(=O)[C@@H](CCCCN)NC1=O [TA14006, H-Arg-Arg-Nal-Cys-Tyr-Arg-Ala-DLys-Pro-Tyr-Arg-Cit-Cys-Arg-OH] (H-RR[2Nal]CYRA[dK]PYR[Cit]CR-OH; disulfide 4-13)		> 80000	>1800
C[C@H]1NC(=O)[C@H](CCCCN)NC(=O)[C@H](CCCNC(=N)N)NC(=O)[C@H](Cc2ccc(O)cc2)NC(=O)[C@@H](NC(=O)[C@H](Cc2ccc3ccccc3c2)NC(=O)[C@H](CCCNC(=N)N)NC(=O)[C@@H](N)CCCNC(=N)N)CSSC[C@@H](C(=O)N[C@@H](CCCNC(=N)N)C(=O)O)NC(=O)[C@H](CCCNC(N)=O)NC(=O)[C@H](CCCNC(=N)N)NC(=O)[C@H](Cc2ccc(O)cc2)NC(=O)[C@@H]2CCCN2C1=O [TA14007, H-Arg-Arg-Nal-Cys-Tyr-Arg-Lys-DAla-Pro-Tyr-Arg-Cit-Cys-Arg-OH] (H-RR[2Nal]CYRK[dA]PYR[Cit]CR-OH; disulfide 4-13)	16		
C[C@H]1NC(=O)[C@H](CCCCN)NC(=O)[C@H](CCCN=C(N)N)NC(=O)[C@H](Cc2ccc(O)cc2)NC(=O)[C@@H](NC(=O)[C@H](Cc2ccc3ccccc3c2)NC(=O)[C@H](CCCN=C(N)N)NC(=O)[C@@H](N)CCCN=C(N)N)CSSC[C@@H](C(=O)N[C@@H](CCCN=C(N)N)C(=O)O)NC(=O)[C@H](CCCNC(N)=O)NC(=O)[C@H](CCCN=C(N)N)NC(=O)[C@H](Cc2ccc(O)cc2)NC(=O)[C@@H]2CCCN2C1=O [TA14007, H-Arg-Arg-Nal-Cys-Tyr-Arg-Lys-DAla-Pro-Tyr-Arg-Cit-Cys-Arg-OH] (H-RR[2Nal]CYRK[dA]PYR[Cit]CR-OH; disulfide 4-13)		> 80000	>5200
C[C@@H]1NC(=O)[C@@H](CCCCN)NC(=O)[C@H](CCCCN)NC(=O)[C@H](CCCNC(=N)N)NC(=O)[C@H](Cc2ccc(O)cc2)NC(=O)[C@@H](NC(=O)[C@H](Cc2ccc3ccccc3c2)NC(=O)[C@H](CCCNC(=N)N)NC(=O)[C@@H](N)CCCNC(=N)N)CSSC[C@@H](C(=O)N[C@@H](CCCNC(=N)N)C(=O)O)NC(=O)[C@H](CCCNC(N)=O)NC(=O)[C@H](CCCNC(=N)N)NC(=O)[C@H](Cc2ccc(O)cc2)NC1=O [TA14008, H-Arg-Arg-Nal-Cys-Tyr-Arg-Lys-DLys-Ala-Tyr-Arg-Cit-Cys-Arg-OH] (H-RR[2Nal]CYRK[dK]AYR[Cit]CR-OH; disulfide 4-13)	17		
C[C@@H]1NC(=O)[C@@H]2CCCN2C(=O)[C@@H](CCCCN)NC(=O)[C@H](CCCCN)NC(=O)[C@H](CCCNC(=N)N)NC(=O)[C@H](Cc2ccc(O)cc2)NC(=O)[C@@H](NC(=O)[C@H](Cc2ccc3ccccc3c2)NC(=O)[C@H](CCCNC(=N)N)NC(=O)[C@@H](N)CCCNC(=N)N)CSSC[C@@H](C(=O)N[C@@H](CCCNC(=N)N)C(=O)O)NC(=O)[C@H](CCCNC(N)=O)NC(=O)[C@H](CCCNC(=N)N)NC1=O [TA14009, H-Arg-Arg-Nal-Cys-Tyr-Arg-Lys-DLys-Pro-Ala-Arg-Cit-Cys-Arg-OH] (H-RR[2Nal]CYRK[dK]PAR[Cit]CR-OH; disulfide 4-13)	17		
N=C(N)NCCC[C@H](NC(=O)[C@@H]1CSSC[C@H](NC(=O)[C@H](Cc2ccc3ccccc3c2)NC(=O)[C@H](CCCNC(=N)N)NC(=O)[C@@H](N)CCCNC(=N)N)C(=O)N[C@@H](Cc2ccc(O)cc2)C(=O)N[C@@H](CCCNC(N)=O)C(=O)N[C@@H](CCCCN)C(=O)N[C@H](CCCCN)C(=O)N2CCC[C@H]2C(=O)N[C@@H](Cc2ccc(O)cc2)C(=O)N[C@@H](CCCNC(=N)N)C(=O)N[C@@H](CCCNC(N)=O)C(=O)N1)C(=O)O [TC14003, H-Arg-Arg-Nal-Cys-Tyr-Cit-Lys-DLys-Pro-Tyr-Arg-Cit-Cys-Arg-OH] (H-RR[2Nal]CY[Cit]K[dK]PYR[Cit]CR-OH; disulfide 4-13)	2.8		
N=C(N)NCCC[C@H](NC(=O)[C@@H]1CSSC[C@H](NC(=O)[C@H](Cc2ccc3ccccc3c2)NC(=O)[C@H](CCCNC(=N)N)NC(=O)[C@@H](N)CCCNC(=N)N)C(=O)N[C@@H](Cc2ccc(O)cc2)C(=O)N[C@@H](CCCNC(=N)N)C(=O)N[C@@H](CCCNC(N)=O)C(=O)N[C@H](CCCCN)C(=O)N2CCC[C@H]2C(=O)N[C@@H](Cc2ccc(O)cc2)C(=O)N[C@@H](CCCNC(=N)N)C(=O)N[C@@H](CCCNC(N)=O)C(=O)N1)C(=O)O [TC14004, H-Arg-Arg-Nal-Cys-Tyr-Arg-Cit-DLys-Pro-Tyr-Arg-Cit-Cys-Arg-OH] (H-RR[2Nal]CYR[Cit][dK]PYR[Cit]CR-OH; disulfide 4-13)	16		
N=C(N)NCCC[C@H](NC(=O)[C@@H]1CSSC[C@H](NC(=O)[C@H](Cc2ccc3ccccc3c2)NC(=O)[C@H](CCCNC(=N)N)NC(=O)[C@@H](N)CCCNC(=N)N)C(=O)N[C@@H](Cc2ccc(O)cc2)C(=O)N[C@@H](CCCNC(=N)N)C(=O)N[C@@H](CCCCN)C(=O)N[C@H](CCCCN)C(=O)N2CCC[C@H]2C(=O)N[C@@H](Cc2ccc(O)cc2)C(=O)N[C@@H](CCCNC(N)=O)C(=O)N[C@@H](CCCNC(N)=O)C(=O)N1)C(=O)O [TC14006, H-Arg-Arg-Nal-Cys-Tyr-Arg-Lys-DLys-Pro-Tyr-Cit-Cit-Cys-Arg-OH] (H-RR[2Nal]CYRK[dK]PY[Cit][Cit]CR-OH; disulfide 4-13)	15		
